Measurements as given in patent publication US6444681B1, “Methods and compositions for treating Raynaud's Phenomenon and scleroderma” (The Ohio State University Research Foundation, priority 2000, dated 2002).
Read-outs that look alike come from different tables or passages of the source.

What was measured:
Mouse Tail Artery = test: Antagonism of UK 14,304-induced vasoconstriction in isolated pressurised distal mouse tail artery; format: cell-based
From the text: Male mice (C57BL6) were euthanized by CO2 asphyxiation. Proximal and/or distal segments of tail artery were then rapidly removed and placed in cold Krebs-Ringer bicarbonate solution (in mM): 118.3 NaCl, 4.7 KCl, 1.2 MgSO4, 1.2 KH2PO4, 2.5 CaCl2, 25.0 NaHCO3, 11. glucose (control solution). The small arteries were cannulated at both ends with glass micropipettes, secured using 12-0 nylon monofilament suture and placed in a microvascuiar chamber (Living Systems, Burlington, Vt.). The arteries were maintained at a constant transmural pressure of 60 mmHg in the absence of flow. The chamber was superfused with control solution and maintained at 37° C., pH 7.4, and gassed with 16% O2-5% CO2-balance N2. The chamber was placed on the stage of an inverted microscope (X20, Nikon TMS-F, Japan) connected to a video camera (Panasonic, CCTV camera, Japan). The vessel image was projected onto a video monitor and the internal diameter continuously determined by a video dimension analyzer (Living Systems Instrumentation, Burlington Vt.) and monitored using a BIOPAC (Santa Barbara, Calif.) data acquisition system (Gateway Dimensions Pentium Computer).
Small arteries were allowed to equilibrate for 30-40 min at a transmural pressure (PTM) of 60 mmHg before addition of α1 and α2-AR agonists and antagonists. Concentration-effect curves to the selective α1-AR agonist, phenylephrine, or the selective α2-AR agonist, UK 14,304 (brimonidine, 5-bromo-N-(4,5-dihydro-1H-imidazol-2-yl)-6-quinoxalinamine) were generated by increasing the concentration of the agonists in half-log increments, once the constriction to the previous concentration had stabilized. Following completion of the concentration-effect curve, the influence of the agonists was terminated by repeatedly exchanging the buffer solution and allowing the artery to return to its stable baseline level.
To evaluate the effect of selective α2-AR antagonists on vasoconstriction, concentration-effect curves to UK 14,304 were determined under control conditions and in the presence of the selective α2A-AR antagonist, BRL 44408 (100 and 1000 nM), the selective α2B-AR antagonist ARC 0239 (50 nM) or the selective α2C-AR antagonist MK 912 (0.3 nM) (Table 1). When these receptor antagonists were used, the preparations were incubated for 30 min with the drugs prior to, and also during, exposure of the arteries to the agonists. When analyzing the influence of cold on α-AR responsiveness, the temperature of the superfusate was decreased to 28° C. for 30 min prior to commencing a concentration effect curve to the constrictor agonists. This provides sufficient time for the effect of cold on adrenergic reactivity to stabilize.
Vasomotor responses were expressed as a percentage change in internal diameter (ID) prior to administrating the agent. Because of the phasic behavior of the vasomotion in distal. tail arteries, the signal was electronically averaged (BIOPAC software, smoothing factor of 2000) in order to obtain diameter measurements. Functional data is expressed as means±SEM for n number of experiments, where n equals the number of animals from which blood vessels were studied. Antagonist dissociation constants (KD) were determined either from Arunlakshana and Schild plots or according to the formula: KD=[Ant]/(CR-1), where [Ant] is the concentration of antagonist, and CR the ratio of agonist-concentrations producing equal responses in the presence and absence of the antagonist. […] Statistical evaluation of the data was performed by Student's t-test for either paired or unpaired observations. When more than two means were compared, analysis of variance was used. If a significant F value was found, Scheffe's test for multiple comparisons was employed to identify differences among groups. Values were considered to be statistically different when P was less than 0.05.

α-2A = biological target: T1, α-2A (Homo sapiens, UniProt P08913); settings: cited from earlier work
T1 sequence (P08913 1-465): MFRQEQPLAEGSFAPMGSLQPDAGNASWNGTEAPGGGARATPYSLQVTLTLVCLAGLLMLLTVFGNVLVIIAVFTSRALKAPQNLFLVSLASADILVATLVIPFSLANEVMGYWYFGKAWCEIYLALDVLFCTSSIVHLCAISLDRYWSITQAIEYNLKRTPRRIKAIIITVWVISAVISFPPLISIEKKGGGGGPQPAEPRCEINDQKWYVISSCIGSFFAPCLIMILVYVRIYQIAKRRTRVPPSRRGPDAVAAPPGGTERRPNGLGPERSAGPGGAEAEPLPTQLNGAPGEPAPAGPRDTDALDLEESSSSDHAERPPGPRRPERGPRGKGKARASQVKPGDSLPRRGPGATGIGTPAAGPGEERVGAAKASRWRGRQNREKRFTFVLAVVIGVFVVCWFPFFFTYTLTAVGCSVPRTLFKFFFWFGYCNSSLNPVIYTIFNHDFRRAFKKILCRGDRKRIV

α-2C = biological target: T2, α-2C (Homo sapiens, UniProt P18825); settings: cited from earlier work
T2 sequence (P18825 1-462): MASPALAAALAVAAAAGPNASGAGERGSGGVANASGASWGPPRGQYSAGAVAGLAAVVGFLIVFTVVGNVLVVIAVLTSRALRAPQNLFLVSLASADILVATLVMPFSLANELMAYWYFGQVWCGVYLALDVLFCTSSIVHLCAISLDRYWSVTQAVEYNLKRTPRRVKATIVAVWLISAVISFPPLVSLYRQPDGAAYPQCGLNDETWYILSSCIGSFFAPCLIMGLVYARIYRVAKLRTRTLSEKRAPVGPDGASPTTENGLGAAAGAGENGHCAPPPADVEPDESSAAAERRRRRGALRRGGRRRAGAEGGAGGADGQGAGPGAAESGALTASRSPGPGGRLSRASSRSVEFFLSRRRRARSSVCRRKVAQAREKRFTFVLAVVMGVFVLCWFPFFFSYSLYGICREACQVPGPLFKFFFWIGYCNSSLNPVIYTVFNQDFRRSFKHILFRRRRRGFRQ

−log KD (Mouse Tail Artery; 28° C. (cold), n=4): 10.9±0.17 | Kd (Mouse Tail Artery; 28° C. (cold), n=4, read-out: KD): 0.014 nM | Kd (Mouse Tail Artery; 28° C. (cold), versus UK 14,304, distal tail artery, read-out: KD Mouse Tail Artery 28° C.): > 0.014 nM | Kd (Mouse Tail Artery; 37° C. (warm), versus UK 14,304, distal tail artery, read-out: KD Mouse Tail Artery 37° C.): > 0.3 nM
Compound: CN1CCC2(CCN3CCc4c(oc5ccccc45)C3C2)N(C)C1=O (stereo not shown) [MK 912]
effect on cold-induced amplification of the α2-AR response (Mouse Tail Artery; 28° C. versus 37° C., UK 14,304): selectively abolished | expected shift in concentration-effect curves generated by α2C-AR stimulation (Mouse Tail Artery; based on the Table 1 KD, antagonist at 0.3 nM): ~6 fold | effect on vasoconstrictor response to UK 14,304 (Mouse Tail Artery; cold (28° C.), BRL 44408 100 and 1000 nM, ARC 0239 50 nM, MK912 3×10^−10M): dramatically inhibited | effect on vasoconstriction to the α2-AR agonist UK 14,304 (Mouse Tail Artery; warm temperatures (37° C.), BRL 44408 100 and 1000 nM, ARC 239 50 nM, MK 912 0.3 nM): not inhibited | Kd (α-2A): 1.8 nM | Kd (α-2C): 0.045 nM
